Source: patent US20150307938A1, “METHOD TO IDENTIFY A NOVEL CLASS OF IMMUNOLOGIC ADJUVANTS” (Lancell, L.L.C., priority 2011, published 2015)

Tested on: skin
Test: Affymetrix microarray of skin, DBP-4 hr and analogs vs. untreated; gene selection by log-2 fold change, Wilcoxon, Kendall tau (Tables 8, 9)
Type: in vivo, mouse

CCCCOC(=O)c1ccccc1C(=O)OCCCC [DBP, dibutylphthalate]
Kendall: Dda1 (gene Dda1, NM_025600_at, gene expression vs. output): Yes | Wilcoxon: Diablo (gene Diablo, NM_023232_at, DBP-4 hr vs. untreated): No | Kendall: Diablo (gene Diablo, NM_023232_at, gene expression vs. output): Yes | Wilcoxon: Dmap1 (gene Dmap1, NM_023178_at, DBP-4 hr vs. untreated): No | Kendall: Dmap1 (gene Dmap1, NM_023178_at, gene expression vs. output): Yes | Wilcoxon: Dnajc4 (gene Dnajc4, NM_020566_at, DBP-4 hr vs. untreated): No | Kendall: Dnajc4 (gene Dnajc4, NM_020566_at, gene expression vs. output): Yes | Wilcoxon: Eid1 (gene Eid1, NM_025613_at, DBP-4 hr vs. untreated): No | Kendall: Eid1 (gene Eid1, NM_025613_at, gene expression vs. output): Yes | Wilcoxon: Eif6 (gene Eif6, NM_010579_at, DBP-4 hr vs. untreated): No | Kendall: Eif6 (gene Eif6, NM_010579_at, gene expression vs. output): Yes | Wilcoxon: Erlec1 (gene Erlec1, NM_025745_at, DBP-4 hr vs. untreated): No | Kendall: Erlec1 (gene Erlec1, NM_025745_at, gene expression vs. output): Yes | Wilcoxon: Fam134b (gene Fam134b, NM_025459_at, DBP-4 hr vs. untreated): No | Kendall: Fam134b (gene Fam134b, NM_025459_at, gene expression vs. output): Yes | Wilcoxon: Fbxo25 (gene Fbxo25, NM_025785_at, DBP-4 hr vs. untreated): No | Kendall: Fbxo25 (gene Fbxo25, NM_025785_at, gene expression vs. output): Yes | Wilcoxon: Fgf13 (gene Fgf13, NM_010200_at, DBP-4 hr vs. untreated): No | Kendall: Fgf13 (gene Fgf13, NM_010200_at, gene expression vs. output): Yes | Wilcoxon: Flt1 (gene Flt1, NM_010228_at, DBP-4 hr vs. untreated): No | Kendall: Flt1 (gene Flt1, NM_010228_at, gene expression vs. output): Yes | Wilcoxon: Fmo5 (gene Fmo5, NM_010232_at, DBP-4 hr vs. untreated): No | Kendall: Fmo5 (gene Fmo5, NM_010232_at, gene expression vs. output): Yes | Wilcoxon: Ftsj3 (gene Ftsj3, NM_025310_at, DBP-4 hr vs. untreated): No | Kendall: Ftsj3 (gene Ftsj3, NM_025310_at, gene expression vs. output): Yes | Wilcoxon: Gcnt2 (gene Gcnt2, NM_023887_at, DBP-4 hr vs. untreated): No | Kendall: Gcnt2 (gene Gcnt2, NM_023887_at, gene expression vs. output): Yes | Wilcoxon: Gmcl1 (gene Gmcl1, NM_011818_at, DBP-4 hr vs. untreated): No | Kendall: Gmcl1 (gene Gmcl1, NM_011818_at, gene expression vs. output): Yes | Wilcoxon: Gpn3 (gene Gpn3, NM_024216_at, DBP-4 hr vs. untreated): No | Kendall: Gpn3 (gene Gpn3, NM_024216_at, gene expression vs. output): Yes | Wilcoxon: Gstz1 (gene Gstz1, NM_010363_at, DBP-4 hr vs. untreated): No | Kendall: Gstz1 (gene Gstz1, NM_010363_at, gene expression vs. output): Yes | Wilcoxon: Gtf2h2 (gene Gtf2h2, NM_022011_at, DBP-4 hr vs. untreated): No | Kendall: Gtf2h2 (gene Gtf2h2, NM_022011_at, gene expression vs. output): Yes | Wilcoxon: Gtf3a (gene Gtf3a, NM_025652_at, DBP-4 hr vs. untreated): No | Kendall: Gtf3a (gene Gtf3a, NM_025652_at, gene expression vs. output): Yes | Wilcoxon: Hsdl2 (gene Hsdl2, NM_024255_at, DBP-4 hr vs. untreated): No | Kendall: Hsdl2 (gene Hsdl2, NM_024255_at, gene expression vs. output): Yes | Wilcoxon: Icos (gene Icos, NM_017480_at, DBP-4 hr vs. untreated): No | Kendall: Icos (gene Icos, NM_017480_at, gene expression vs. output): Yes | Wilcoxon: Ifngr1 (gene Ifngr1, NM_010511_at, DBP-4 hr vs. untreated): No | Kendall: Ifngr1 (gene Ifngr1, NM_010511_at, gene expression vs. output): Yes | Wilcoxon: Inpp5d (gene Inpp5d, NM_010566_at, DBP-4 hr vs. untreated): No | Kendall: Inpp5d (gene Inpp5d, NM_010566_at, gene expression vs. output): Yes | Wilcoxon: Itgax (gene Itgax, NM_021334_at, DBP-4 hr vs. untreated): No | Kendall: Itgax (gene Itgax, NM_021334_at, gene expression vs. output): Yes | Wilcoxon: Itk (gene Itk, NM_010583_at, DBP-4 hr vs. untreated): No | Kendall: Itk (gene Itk, NM_010583_at, gene expression vs. output): Yes | Wilcoxon: Krt17 (gene Krt17, NM_010663_at, DBP-4 hr vs. untreated): No | Kendall: Krt17 (gene Krt17, NM_010663_at, gene expression vs. output): Yes | Wilcoxon: Map3k14 (gene Map3k14, NM_016896_at, DBP-4 hr vs. untreated): No | Kendall: Map3k14 (gene Map3k14, NM_016896_at, gene expression vs. output): Yes | Wilcoxon: Mdp1 (gene Mdp1, NM_023397_at, DBP-4 hr vs. untreated): No | Kendall: Mdp1 (gene Mdp1, NM_023397_at, gene expression vs. output): Yes | Wilcoxon: Meis1 (gene Meis1, NM_010789_at, DBP-4 hr vs. untreated): No | Kendall: Meis1 (gene Meis1, NM_010789_at, gene expression vs. output): Yes | Wilcoxon: Mkrn3 (gene Mkrn3, NM_011746_at, DBP-4 hr vs. untreated): No | Kendall: Mkrn3 (gene Mkrn3, NM_011746_at, gene expression vs. output): Yes | Wilcoxon: Mtcp1 (gene Mtcp1, NM_010839_at, DBP-4 hr vs. untreated): No | Kendall: Mtcp1 (gene Mtcp1, NM_010839_at, gene expression vs. output): Yes | Wilcoxon: Mum1 (gene Mum1, NM_023431_at, DBP-4 hr vs. untreated): No | Kendall: Mum1 (gene Mum1, NM_023431_at, gene expression vs. output): Yes | Wilcoxon: Myd88 (gene Myd88, NM_010851_at, DBP-4 hr vs. untreated): No | Kendall: Myd88 (gene Myd88, NM_010851_at, gene expression vs. output): Yes | Wilcoxon: Nagk (gene Nagk, NM_019542_at, DBP-4 hr vs. untreated): No | Kendall: Nagk (gene Nagk, NM_019542_at, gene expression vs. output): Yes | Wilcoxon: Ndufaf3 (gene Ndufaf3, NM_023247_at, DBP-4 hr vs. untreated): No | Kendall: Ndufaf3 (gene Ndufaf3, NM_023247_at, gene expression vs. output): Yes | Wilcoxon: Nek3 (gene Nek3, NM_011848_at, DBP-4 hr vs. untreated): No | Kendall: Nek3 (gene Nek3, NM_011848_at, gene expression vs. output): Yes | Wilcoxon: Nfkb2 (gene Nfkb2, NM_019408_at, DBP-4 hr vs. untreated): No | Kendall: Nfkb2 (gene Nfkb2, NM_019408_at, gene expression vs. output): Yes | Wilcoxon: Nicn1 (gene Nicn1, NM_025449_at, DBP-4 hr vs. untreated): No | Kendall: Nicn1 (gene Nicn1, NM_025449_at, gene expression vs. output): Yes | Wilcoxon: Nme3 (gene Nme3, NM_019730_at, DBP-4 hr vs. untreated): No | Kendall: Nme3 (gene Nme3, NM_019730_at, gene expression vs. output): Yes | Wilcoxon: Ntpcr (gene Ntpcr, NM_025636_at, DBP-4 hr vs. untreated): No | Kendall: Ntpcr (gene Ntpcr, NM_025636_at, gene expression vs. output): Yes | Wilcoxon: Orc3 (gene Orc3, NM_015824_at, DBP-4 hr vs. untreated): No | Kendall: Orc3 (gene Orc3, NM_015824_at, gene expression vs. output): Yes | Wilcoxon: Padi1 (gene Padi1, NM_011059_at, DBP-4 hr vs. untreated): No | Kendall: Padi1 (gene Padi1, NM_011059_at, gene expression vs. output): Yes | Wilcoxon: Panx1 (gene Panx1, NM_019482_at, DBP-4 hr vs. untreated): No | Kendall: Panx1 (gene Panx1, NM_019482_at, gene expression vs. output): Yes | Wilcoxon: Pfdn2 (gene Pfdn2, NM_011070_at, DBP-4 hr vs. untreated): No | Kendall: Pfdn2 (gene Pfdn2, NM_011070_at, gene expression vs. output): Yes | Wilcoxon: Phtf1 (gene Phtf1, NM_013629_at, DBP-4 hr vs. untreated): No | Kendall: Phtf1 (gene Phtf1, NM_013629_at, gene expression vs. output): Yes
